Assay [1] deals with T1, ADP stimulated platelet aggregation in human, citrated, platelet-rich plasma (Homo sapiens, UniProt P05106+P08514).
T1 construct: aggregating human, citrated, platelet-rich plasma; endogenous in cells; host or cells: human platelets in citrated platelet-rich plasma
Nature of the assay: test (a): inhibition of ADP stimulated platelet aggregation (Born). The format is cell-based. Particulars: ADP-induced aggregation, read-out: pA2 (potency of platelet aggregation inhibition) (converted). From the text:
(i) aggregating human, citrated, platelet-rich plasma by addition of adenosine diphosphate (ADP) so as to generate a dose-response curve;
(ii) generating a dose-response curve for ADP stimulated platelet aggregation in the presence of increasing amounts of a test compound (generally in the range 10^-5 M to 10^-10 M); and
(iii) calculating a pA2 value indicating potency of platelet aggregation inhibition for the test compound, averaged over several concentrations, from the calculated 50% response value for ADP aggregation in the presence and absence of the test compound.

Assay [2] has as its target T2, purified human platelet fibrinogen receptor (GPIIb/IIIa) (Homo sapiens, UniProt P05106+P08514).
T2 construct: Glycoprotein IIb/IIIa is isolated from human platelet lysates; from tissue
Briefly: test (b): GPIIb/IIIa ELISA, inhibition of biotinylated fibrinogen binding. Particulars: biotinylated fibrinogen 10 nM, read-out: pIC50 (-log(IC50)), 50% inhibition of biotinylated fibrinogen binding (converted). As to the method:
(i) Preparation of human platelet lysates.
Platelet rich plasma (prp) is harvested by centrifugation (1000 rpm, 15 minutes) of whole blood anticoagulated with acid citrate dextrose (trisodium citrate 85 mM, citric acid 70 mM, d-glucose 110 mM), 1 part to 6 parts blood. Prostacyclin (PGI2, 1 μM) is added to the prp before centrifugation (2400 rpm, 15 min) and the resulting pellet is resuspended in modified Tyrodes' solution (NaCl 130 mM, KCl 26 mM, NaHCO3 12 mM, NaH2 PO4 0.5 mM, MgCl2 1 mM, CaCl2 20 mM, Glucose 12 mM, HEPES 5 mM) containing bovine serum albumin 3.5 g/L, PGI2 1 μM and hirudin 0.5 U/ml. The platelet suspension is centrifuged (2400 rpm, 15 minutes) and the resultant pellet resuspended in 500 μl of lysis buffer (octyl glucoside 50 mM, HEPES 10 mM, NaCl 150 mM, CaCl2 1 mM, MgCl2 1 mM, PMSF 1 mM, NEM 10 mM, leupeptin 0.1 mM), agitated at 4° C. for 15 minutes then centrifuged at 24000 rpm, 15 minutes. The supernatant is stored at 4° C. and the pellet re-suspended in 500 μl of lysis buffer. […]
96 well microtitre plates are coated with 100 μl purified human platelet fibrinogen receptor (GPIIb/IIIa) diluted in coating buffer (Tris-HCl 20 mM, NaCl 150 mM, CaCl2 1 mM, pH7.4) and left overnight at 4° C. […] Colour is allowed to develop for 10-15 minutes before optical densities are read at 650 nm. […]
A general note: In an ELISA, binding on a coated surface is turned into a signal by an enzyme label.

The next assay concerns platelet aggregation. Nature of the assay: test (a) modified: activity after oral dosing to dogs. The note with it: dosed orally to dogs at 3 mg/kg. Type of assay: in vivo. As to the method:
Test (a) may be modified so as to assess the effects of a test compound ex vivo on the aggregation of human blood platelets after administration of the test compound to a laboratory animal, such as a rat, rabbit, guinea pig, mouse or dog. For example, groups of fourmale, fasted Alderley Park Wistar rats are orally dosed with a test compound or appropriate vehicle, and at suitable time intervals (1, 3, 5 and 8 hours after dosing) animals are anaesthetised with fluothane and bled by heart puncture. Blood is collected into 3.2% citrate (1 part to 9 parts whole blood) and platelet poor plasma (ppp) prepared by centrifugation (4500×g for 10 minutes). […]
Equal volumes (125 μl ) of rat ppp and human prp are mixed together, ADP added, and the whole incubated (37° C.) and stirred (900 rpm) in a BioData platelet aggregometer. Aggregation is induced with ADP and agonist EC50 values calculated for human prp/rat ppp mixtures from animals dosed with test compound or vehicle. A mean concentration ratio (concentration of ADP required to cause a 50% aggregation response in human prp/rat ppp mixtures from animals dosed with antagonist, divided by the concentration of ADP to cause 50% aggregation in human prp/rat ppp mixtures from animals dosed with vehicle) is calculated at each time point. […]

The IC50 is the midpoint of a concentration-inhibition curve.

T2 sequence (P08514 32-887 limits assumed): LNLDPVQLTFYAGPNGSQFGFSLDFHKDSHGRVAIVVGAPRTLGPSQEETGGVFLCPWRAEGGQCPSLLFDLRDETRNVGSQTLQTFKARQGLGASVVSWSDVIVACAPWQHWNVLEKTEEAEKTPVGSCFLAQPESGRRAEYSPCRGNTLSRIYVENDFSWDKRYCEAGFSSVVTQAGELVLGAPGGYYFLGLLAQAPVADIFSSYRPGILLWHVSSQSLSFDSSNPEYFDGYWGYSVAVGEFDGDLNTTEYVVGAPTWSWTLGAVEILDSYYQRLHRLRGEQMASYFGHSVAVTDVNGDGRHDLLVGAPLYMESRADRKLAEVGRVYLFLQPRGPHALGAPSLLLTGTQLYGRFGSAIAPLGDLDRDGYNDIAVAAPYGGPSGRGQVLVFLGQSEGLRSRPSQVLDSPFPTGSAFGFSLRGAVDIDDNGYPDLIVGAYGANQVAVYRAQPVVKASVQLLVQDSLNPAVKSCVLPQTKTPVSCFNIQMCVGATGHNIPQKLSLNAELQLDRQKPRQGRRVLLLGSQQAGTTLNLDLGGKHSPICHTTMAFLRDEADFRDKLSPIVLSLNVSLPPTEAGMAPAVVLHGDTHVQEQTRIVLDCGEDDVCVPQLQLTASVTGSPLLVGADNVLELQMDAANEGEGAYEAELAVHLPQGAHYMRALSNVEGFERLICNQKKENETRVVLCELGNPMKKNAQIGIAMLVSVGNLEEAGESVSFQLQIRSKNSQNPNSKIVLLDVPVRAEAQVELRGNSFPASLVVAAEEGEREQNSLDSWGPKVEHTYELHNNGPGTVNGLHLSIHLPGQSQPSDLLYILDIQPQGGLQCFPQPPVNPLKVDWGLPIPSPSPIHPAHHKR
T2 sequence (P08514 891-1039 limits assumed): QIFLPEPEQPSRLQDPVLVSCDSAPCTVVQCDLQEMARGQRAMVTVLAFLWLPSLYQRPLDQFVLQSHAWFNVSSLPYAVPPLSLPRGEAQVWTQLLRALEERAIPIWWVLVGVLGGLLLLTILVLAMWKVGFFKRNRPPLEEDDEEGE
T2 sequence (P05106 27-788): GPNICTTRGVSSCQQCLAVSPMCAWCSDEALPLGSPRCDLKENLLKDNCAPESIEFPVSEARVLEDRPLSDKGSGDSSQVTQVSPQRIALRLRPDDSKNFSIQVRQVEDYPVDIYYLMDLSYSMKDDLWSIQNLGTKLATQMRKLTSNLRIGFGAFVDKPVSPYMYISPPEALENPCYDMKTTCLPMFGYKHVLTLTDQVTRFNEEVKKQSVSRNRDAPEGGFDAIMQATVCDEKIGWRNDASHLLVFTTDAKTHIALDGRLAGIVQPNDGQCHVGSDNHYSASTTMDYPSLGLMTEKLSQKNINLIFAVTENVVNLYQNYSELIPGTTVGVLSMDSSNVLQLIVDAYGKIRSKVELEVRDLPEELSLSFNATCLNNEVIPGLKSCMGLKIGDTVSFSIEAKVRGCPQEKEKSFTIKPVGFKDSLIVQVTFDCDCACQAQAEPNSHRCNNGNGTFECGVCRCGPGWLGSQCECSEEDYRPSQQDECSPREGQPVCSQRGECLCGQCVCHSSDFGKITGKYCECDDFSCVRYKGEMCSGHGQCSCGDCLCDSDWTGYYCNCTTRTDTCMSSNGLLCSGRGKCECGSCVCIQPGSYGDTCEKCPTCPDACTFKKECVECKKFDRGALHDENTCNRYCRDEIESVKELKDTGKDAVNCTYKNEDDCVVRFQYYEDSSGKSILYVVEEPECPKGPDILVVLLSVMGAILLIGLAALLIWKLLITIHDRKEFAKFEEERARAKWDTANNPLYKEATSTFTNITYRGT
T1 sequence (P08514 32-887 limits assumed): as the sequence (P08514 32-887 limits assumed) above
T1 sequence (P08514 891-1039 limits assumed): as the sequence (P08514 891-1039 limits assumed) above
T1 sequence (P05106 27-788): as the sequence (P05106 27-788) above

As to `COC(=O)COc1ccc(C(=O)NNC(=O)c2ccc(C(=N)N)cc2)cc1` [Example 12, Methyl 4-[3-(4-amidinobenzoyl)carbazoyl]phenoxyacetate], the Kb in assay [1] is 0.2 µM. Also, in assay [2], the IC50 was 1.12 µM. Moreover, the “duration of activity after oral dosing” value in the assay with platelet aggregation is “up to 24 hours”.
As to `N=C(N)c1ccc(C(=O)NNC(=O)c2ccc(OCC(=O)O)cc2)cc1` [Example 13, 4-[3-(4-Amidinobenzoyl)carbazoyl]phenoxyacetic acid], the Kb in assay [1] was 0.00794 µM. Besides, the IC50 in assay [2] is 0.0158 µM.
